Test results published in PubChem BioAssay (NCI).
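Results reflect a 48-hour exposure of cells in 96-well plates to compound at five concentrations. The concentration for full growth arrest is given as TGI.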

Experiments:
Experiment in all cases: NCI tumour cell line growth inhibition, 48 h
BT-549 breast = tested on: BT-549 breast
CAKI-1 renal = tested on: CAKI-1 renal
CCRF-CEM leukemia = tested on: CCRF-CEM leukemia
HCT-116 colon = tested on: HCT-116 colon
HOP-62 NSCLC = tested on: HOP-62 NSCLC
K-562 leukemia = tested on: K-562 leukemia
LOX IMVI melanoma = tested on: LOX IMVI melanoma
MCF7 breast = tested on: MCF7 breast
MOLT-4 leukemia = tested on: MOLT-4 leukemia
NCI-H23 lung = tested on: NCI-H23 lung
NCI-H460 lung = tested on: NCI-H460 lung
PC-3 prostate = tested on: PC-3 prostate
SF-295 CNS = tested on: SF-295 CNS
SN12C renal = tested on: SN12C renal
SNB-75 CNS = tested on: SNB-75 CNS
UACC-62 melanoma = tested on: UACC-62 melanoma
UO-31 renal = tested on: UO-31 renal
T-47D breast = tested on: T-47D breast

SMILES | TGI (BT-549 breast) | TGI (CAKI-1 renal) | TGI (CCRF-CEM leukemia) | TGI (HCT-116 colon) | TGI (HOP-62 NSCLC) | TGI (K-562 leukemia) | TGI (LOX IMVI melanoma) | TGI (MCF7 breast) | TGI (MOLT-4 leukemia) | TGI (NCI-H23 lung) | TGI (NCI-H460 lung) | TGI (PC-3 prostate) | TGI (SF-295 CNS) | TGI (SN12C renal) | TGI (SNB-75 CNS) | TGI (UACC-62 melanoma) | TGI (UO-31 renal) | TGI (T-47D breast)
O=C1/C(=C/c2cccc(Cl)c2)CCCc2ccccc21 | 44.5 µM | 94.5 µM | 30.4 µM | 26.1 µM | 49 µM | 34 µM | 32.8 µM | 27.4 µM | 53.7 µM | 36 µM | 31.2 µM | 38.3 µM | 31.6 µM | 32.3 µM | > 100 µM | 27 µM | 30.1 µM | –
CC1CC(N)=C(C#N)C1(C#N)C#N (centres undefined) | – | 59.7 µM | – | > 100 µM | – | > 100 µM | > 100 µM | > 100 µM | > 100 µM | > 100 µM | – | > 100 µM | > 100 µM | > 100 µM | > 100 µM | > 100 µM | > 100 µM | > 100 µM
Cc1ccc(C)n1-c1ccccc1C1C=Cn2c(=O)nnc3c(OC(C)C)c(OC(C)C)c(O)c1c32 (centres undefined) | > 100 µM | > 100 µM | > 100 µM | 70.1 µM | > 100 µM | > 100 µM | > 100 µM | > 100 µM | 56.5 µM | > 100 µM | > 100 µM | > 100 µM | > 100 µM | > 100 µM | > 100 µM | > 100 µM | > 100 µM | –
CC(=O)OCCn1cnc2c(NCC=C(C)C)ncnc21 | – | > 100 µM | > 100 µM | > 100 µM | > 100 µM | > 100 µM | > 100 µM | > 100 µM | > 100 µM | > 100 µM | > 100 µM | > 100 µM | > 100 µM | > 100 µM | > 100 µM | – | > 100 µM | > 100 µM
Cc1c(C)c2ccc(OCC(O)COC(C)C)c(C)c2oc1=O (centres undefined) | – | > 100 µM | 62.4 µM | 36 µM | 58.6 µM | 71.4 µM | 42.2 µM | 50.1 µM | > 10 µM | > 100 µM | 34.6 µM | > 100 µM | > 100 µM | – | – | > 100 µM | > 100 µM | > 100 µM
CC(=O)c1nc2ccccc2n1C(C)C(=O)c1ccccc1 (centres undefined) | > 100 µM | > 100 µM | > 100 µM | > 100 µM | > 100 µM | > 100 µM | > 100 µM | > 100 µM | > 100 µM | > 100 µM | > 100 µM | > 100 µM | > 100 µM | > 100 µM | > 100 µM | > 100 µM | > 100 µM | –
O=C(Nc1ccc(C(F)(F)F)cc1)NC(F)(F)F | > 100 µM | > 100 µM | > 100 µM | > 100 µM | – | > 100 µM | > 100 µM | – | > 100 µM | > 100 µM | – | > 100 µM | – | > 100 µM | > 100 µM | – | > 100 µM | > 100 µM
